Assay results taken from US20130212744A1, “METHOD OF REDUCING INSECT-VECTORED VIRAL INFECTIONS” (priority 2010, published 2013).

Columns and labels:
Type in all cases: in vivo
Conditions in all cases: 150 g ai/hl
[1] = test system: whitefly Bemisia tabaci nymphs; test: Foliar use field trial on tomato, efficacy on whitefly nymphs
Method: (§1) Two studies were carried out in Elhasanya, Egypt in 2009 on tomato plants of the variety Fayrouz with the main goal to measure efficacy on the whitefly Bemisia tabaci. The plot size was 4.8 m^2 and 6 replicates were used in the trial. Products were applied 3 times on young tomato plants at BBCH stages 14, 17 and 51 at spray intervals between 12 and 19 days. The spray volume was at the first application 350 l/ha and later 500 l/ha. The evaluation of this study was done counting the adult whiteflies (Bemisia tabaci) as well as the nymphs and the eggs in each plot. In addition to the direct whitefly effect, visual symptoms of the virus, mainly TYLCV (tomato yellow leaf curl virus) were evaluated also.
(§2) ASM=Acibenzolar-S-methyl. WG 50=Actigard® 50WG, a water-dispersible granule with the active ingredient ASM CYNT=Cyantraniliprole. WG 40=Cyazypyr®, a water dispersable granule with the active ingredient CYNT. Results on whitefly adults. Trial 1

[2] = test system: whitefly Bemisia tabaci adults; test: Foliar use field trial on tomato, efficacy on whitefly adults
Method: as §1, §2

[3] = test system: TYLCV (tomato yellow leaf curl virus); test: Foliar use field trial on tomato, infected leaf area by TYLC virus
Method: as §1, §2
Evaluation of percentage of infected leaf area by TYLC virus (average of 45 plants evaluated per treatment) Trial 1

Question: For `Cc1cc(C)c(C2=C(OC(=O)CC(C)(C)C)C3(CCCC3)OC2=O)c(C)c1` [Spiromesifen], which “% Efficacy on Nymphs” value ([1]; 5DAA2, Trial 1) is on record?
Answer: Its value is 86%.

Question: And the “% Efficacy on Nymphs” value ([1]; 5DAA2, Trial 2)?
Answer: The value was 86%.

Question: And the “% Efficacy on Nymphs” value ([1]; 5DAA3, Trial 1)?
Answer: The value was 88%.

Question: What about the “% Efficacy on Nymphs” value ([1]; 5DAA3, Trial 2) of the same compound?
Answer: Its value is 88%.

Question: What about the “% Efficacy on Nymphs” value ([1]; 10DAA2, Trial 1) of the same compound?
Answer: Its value is 85%.

Question: And the “% Efficacy on Nymphs” value ([1]; 10DAA2, Trial 2)?
Answer: The value was 85%.

Question: What about the “% Efficacy on Nymphs” value ([1]; 10DAA3, Trial 1) of the same compound?
Answer: The value was 84%.

Question: What about the “% Efficacy on Nymphs” value ([1]; 10DAA3, Trial 2) of the same compound?
Answer: Its value is 84%.

Question: And the “% Efficacy on Nymphs” value ([1]; 15DAA3, Trial 1)?
Answer: Its value is 81%.

Question: And the “% Efficacy on Nymphs” value ([1]; 15DAA3, Trial 2)?
Answer: Its value is 81%.

Question: What about the “% Efficacy on Nymphs” value ([1]; 20DAA3, Trial 1) of the same compound?
Answer: Its value is 76%.

Question: And the “% Efficacy on Nymphs” value ([1]; 20DAA3, Trial 2)?
Answer: The value was 76%.

Question: What about the “% Efficacy on Nymphs Avg % C” value ([1]; Avg, Trial 1) of the same compound?
Answer: The value was 83%.

Question: And the “% Efficacy on Adults” value ([2]; 5DAA1, Trial 1)?
Answer: The value was 61%.

Question: And the “% Efficacy on Adults” value ([2]; 5DAA1, Trial 2)?
Answer: Its value is 61%.

Question: And the “% Efficacy on Adults” value ([2]; 5DAA2, Trial 1)?
Answer: The value was 71%.

Question: And the “% Efficacy on Adults” value ([2]; 5DAA2, Trial 2)?
Answer: The value was 71%.

Question: What about the “% Efficacy on Adults” value ([2]; 5DAA3, Trial 1) of the same compound?
Answer: Its value is 81%.

Question: And the “% Efficacy on Adults” value ([2]; 5DAA3, Trial 2)?
Answer: The value was 81%.

Question: What about the “% Efficacy on Adults” value ([2]; 10DAA1, Trial 1) of the same compound?
Answer: The value was 43%.

Question: What about the “% Efficacy on Adults” value ([2]; 10DAA1, Trial 2) of the same compound?
Answer: The value was 43%.

Question: What about the “% Efficacy on Adults” value ([2]; 10DAA2, Trial 1) of the same compound?
Answer: The value was 69%.

Question: And the “% Efficacy on Adults” value ([2]; 10DAA2, Trial 2)?
Answer: The value was 69%.

Question: What about the “% Efficacy on Adults” value ([2]; 10DAA3, Trial 1) of the same compound?
Answer: The value was 76%.

Question: What about the “% Efficacy on Adults” value ([2]; 10DAA3, Trial 2) of the same compound?
Answer: Its value is 76%.

Question: And the “% Efficacy on Adults” value ([2]; 15DAA3, Trial 1)?
Answer: Its value is 67%.

Question: What about the “% Efficacy on Adults” value ([2]; 15DAA3, Trial 2) of the same compound?
Answer: The value was 67%.

Question: What about the “% Efficacy on Adults” value ([2]; 20DAA3, Trial 1) of the same compound?
Answer: The value was 54%.

Question: And the “% Efficacy on Adults” value ([2]; 20DAA3, Trial 2)?
Answer: Its value is 54%.

Question: What about the “% Efficacy on Adults Avg % C” value ([2]; Avg, Trial 1) of the same compound?
Answer: Its value is 65%.

Question: What about the “% Infected Surface area with virus / plant” value ([3]; 5DAA2, Trial 1) of the same compound?
Answer: Its value is 1.1%.

Question: And the “% Infected Surface area with virus / plant” value ([3]; 5DAA2, Trial 2)?
Answer: Its value is 1.1%.

Question: What about the “% Infected Surface area with virus / plant” value ([3]; 5DAA3, Trial 1) of the same compound?
Answer: Its value is 0.8%.

Question: What about the “% Infected Surface area with virus / plant” value ([3]; 5DAA3, Trial 2) of the same compound?
Answer: Its value is 0.8%.

Question: And the “% Infected Surface area with virus / plant” value ([3]; 10DAA3, Trial 1)?
Answer: Its value is 7.1%.

Question: And the “% Infected Surface area with virus / plant” value ([3]; 10DAA3, Trial 2)?
Answer: Its value is 7.1%.

Question: What about the “% Infected Surface area with virus / plant” value ([3]; 15DAA3, Trial 1) of the same compound?
Answer: Its value is 8.8%.

Question: And the “% Infected Surface area with virus / plant” value ([3]; 15DAA3, Trial 2)?
Answer: Its value is 8.8%.

Question: What about the “% Infected Surface area with virus / plant” value ([3]; 20DAA3, Trial 1) of the same compound?
Answer: The value was 11.1%.

Question: What about the “% Infected Surface area with virus / plant” value ([3]; 20DAA3, Trial 2) of the same compound?
Answer: Its value is 11.1%.

Question: What about the “% Infected Surface area with virus / plant” value ([3]; 24DAA3, Trial 1) of the same compound?
Answer: Its value is 11.5%.

Question: What about the “% Infected Surface area with virus / plant” value ([3]; 24DAA3, Trial 2) of the same compound?
Answer: The value was 11.5%.
